From patent publication USRE43712E1, “Methods for assaying for antidepressant therapy markers” (The Board of Trustees of the Uniersity of Illinois, priority 2000, dated 2012)
Marks after values point to notes of the source that are not given here.

Key:
Assay type in all cases: cell-based
Gsα [1] = test: Content of G protein (Gsα) in C6-2B glioma membranes after antidepressant treatment, quantitative immunoblot
Method: (§1) C6-2B cells (between passages 20 and 40) were grown in 175-cm^2 flasks in Dulbecco's modified Eagle medium, 4.5 g of glucose/L, 10% bovine serum, in a 10% CO2 atmosphere, at 37° C. for 3 days after splitting. […] Male Sprague-Dawley rats weighing 150-200 g were fed ad libitum and maintained in a 12-h light/dark cycle. […] 36:803-838, 1989]. […] Rat cerebral cortex membranes were prepared according to the method of Rasenick et al. [Nature, 294:560-562; 1981].
(§2) Rat cortex membrane, C6-2B cell membranes, or Triton extracts of each membrane preparation were subjected to SDS-PAGE followed by electrotransfer to polyvinylidene difluoride (PVDF) membrane. The PVDF membrane was incubated with a phosphate-buffered saline/Tween 20 Buffer (140 mM NaCl, […]. 0.1% Tween 20, pH 7.4) and 3% bovine serum albumin. The membrane was then incubated with polyclonal rabbit antisera against the various G protein subunits [RM (Gsα) or 116 (Gi1, Gi2, Gi3α)] at a 1:25,000 (RM) or 1:5,000 (116) dilution (see below for source of antibodies). […] Immunoreactivity was detected with an enhanced chemiluminescence (ECL) western blot detection system (Amersham) in accord with the manufacturer's instructions. The developed autoradiographs were analyzed by densitometry.
Purified recombinant GsαL (long form of Gsα; 1-10 ng/lane) was subjected to SDS-PAGE and transferred to PVDF membranes. The blots were incubated with antibody against Gsα (RM) and processed by ECL. Films were analyzed on a Molecular Dynamics densitometer, and the volume of each band was quantified and used to make a standard curve.
Experiments were conducted to determine whether Gsα is quantitatively altered by antidepressant therapy. For quantification of Gsα in C6-2B membrane, a standard curve was created using purified recombinant […]. Pure Gsα (1-20 ng/well) was subjected to SDS-PAGE and transferred to a PVDF membrane, Gsα was immunodetected by antisera against the as subunit of G protein.
To estimate the effect of antidepressant treatment on the amount of Gsα in C6-2B membranes, equal amounts (10 μg) of C6-2B glioma membrane proteins in control and chronically (3 days) antidepressant-treated groups were subjected to SDS-PAGE. Gsα was immunodetected by antisera against the αs subunit of G protein.

Gsα [2] = test: Sequential detergent extraction (Triton X-100 / Triton X-114) of Gsα from C6-2B glioma membranes; settings: C6-2B cells; for GsαL in Remainder, % of corresponding value in control group / GsαL in Triton X-100 extract, % of corresponding value in control group / GsαL in Triton X-114 extract, % of corresponding value in control group / GsαS in Remainder, % of corresponding value in control group / GsαS in Triton X-100 extract, % of corresponding value in control group / GsαS in Triton X-114 extract, % of corresponding value in control group: mean ± SEM of 4-5 experiments
Method: as §1
Membrane proteins were extracted sequentially from C6-2B or rat synaptic membranes as described [Yan et al., J. Neurochem., 66:1489-1495; 1996]. These membranes were stirred on ice in HEPES (15 mM, pH 7.4) containing 1% Triton X-100 for 60 min followed by centrifugation at 100,000 g for 60 min at 4° C. The supernatant was reserved (Triton X-100 extract), and the resulting pellet was resuspended in Tris (15 mM, pH 7.4) containing 1.4% Triton X-114 and 150 mM NaCl. The solution was stirred for 60 min at 4° C. and centrifuged for 30 min at 100,000 g in the cold. The supernatant was saved (Triton X-114 extract). These supernatants and remaining pellet (remainder) were subjected to sodium dodecyl sulfate (SDS)-polyacrylamide gel electophoresis (PAGE) using 10% gels. All of the extraction buffers contained 1 mM PMSF and 1 mM EGTA.
as §2
A membrane-enriched fraction was prepared (see Example 1), and membrane proteins were extracted sequentially with Triton X-100 (Tx 100) and Triton X-114 (Tx 114). Equal amounts of these extracts were subjected to SDS-PAGE and transferred to PVDF membrane. The long and short forms of Gsα (GsαL and GsαS) from different fractions were identified by immunodetection.
Experiments were conducted according to the method set forth in Example 1 to assess the effects of different antidepressants on the detergent extraction of Gsα from C6-2B glioma cells.
The ratios of the percentage of Gsα extracted by the two detergents in the treatment versus control groups were compared and are set forth in Table 2 as percentage of control (i.e., each Triton X-100 extract was compared with the untreated Triton X-100 extract; the same was done for Triton X-114 extracts as well as the remainder).

Gsα [3] = test: Cellular localization of Gsα in C6-2B cells, immunofluorescence laser scanning confocal microscopy; settings: 10 μM, 3 days
Method: C6-2B cells (between passages 30 and 50) were plated onto coverslips and allowed to attach overnight in Dulbecco's modified Eagle's medium. 4.5 g/l glucose, 10% bovine serum, and 100 μg/ml penicillin and streptomycin at 37° C. in a humidified 10% CO2 atmosphere. […] Therefore, the latter treatment paradigm was used in these experiments because it was easier to maintain the cell cultures for 3 days. […] The culture media and drug were changed daily. […] After the treatment duration, the cells were incubated in drug-free media for 45 to 60 minutes before fixation.
After treatment, cells were washed once with phosphate-buffered saline (PBS, […] NaCl, 2.6 mM KCl, 5.4 mM NaαPO4 7H2O, pH 7.4) and fixed with ice-cold methanol for 10 minutes. Cells were then washed three times with PBS followed by 2 h of blocking in 5% normal goat serum/0.2% fish skin gelatin in PBS. Primary antibody was added for 1.5 h, Gsα/RM1 (PerkinElmer Life Sciences, Boston, Mass.) 1:50 and Goα (Santa Cruz Biotechnology, Santa Cruz, Calif.) 2 μg/ml, followed by three washes with PBS. Oregon Green-labeled secondary antibody (Molecular Probes, Eugene, Oreg.) was added at a concentration of 8 μg/ml for 1 h followed by three PBS washes. The coverslips were mounted onto slides with Vectashield (Vector Laboratories. Burlingame, Calif.) containing diamidino-2-phenylindole as a mounting medium. Images were acquired using a Zeiss LSM510 laser-scanning confocal microscope (Carl Zeiss Inc., Thornwood, N.Y.). A single 488-nm beam from an argon/krypton laser was used for excitation of the Oregon Green. Differential interference contrast images were also acquired. Five experiments were performed and coverslips were examined. Approximately 2100 cells from control and desipramine-treated coverslips were counted by two investigators blind to the experimental conditions over the course of the five experiments.
The cellular distribution of Gsα was quantified in confocal imaged C6-2B cells using NIH-Image software (http://rsbinfonihpov/nih-image) as describe previously [Southwell et al., Cell Tissue Res., 292:37-45, 1998; Jenkinson et al., Br. J. Pharmacol., 126:131-136, 1999]. Images of 9×1 μm optical, planar sections taken from four randomly selected control and four randomly selected desipramine-treated cells were captured and the middle five sections from each cell were quantified. Total cellular Gsα fluorescence was measured by counting the number of pixels with intensity above threshold (determined by minimum intensity above background in this case 50 pixels). The areas of intensity were numbered and divided visually into those localized to the cell body and those localized to the processes and process tips. The total from each region was divided by the total cell pixel intensity and expressed as a percentage of the total. This was done for each section of each cell and the sections were averaged per cell to give an average percentage total per cell.
In a separate investigation, seven sets of 300 cells each from control group and desipramine-treated cells from five experiments were counted to determine the primary localization (processes and process tips or cell body) of Gsα within these cells. The majority of the cells stained positively for Gsα throughout the entire cell, but there was usually an enhancement in one of these regions. […] The counts are expressed as the ratio of process and process tip localization/cell body localization.
Studies were conducted to determine whether a shift in cellular localization of Gsα occurred in C6-2B cells subjected to antidepressants.
Twenty-one hundred cells from each group (control versus desipramine-treated) over a series of five experiments were examined to quantify the extent of the antidepressant effect. […] Abnormal cells or those not displaying processes were not included in the cell count. Cells (300-450) were counted per experiment and the ratio of category A cells to category B cells for each group is shown in FIG. 8. […]

Gsα [4] = test: Gsα in Triton-insoluble, caveolin-enriched versus Triton-soluble fraction of C6-2B cells (sucrose density gradient, immunoblot); settings: chronic treatment, FIG. 3C
Method: as §2

[5] = C6-2B membranes, 10 μM drug for 3 days, mean ± SEM of 4-5 experiments

Structure (SMILES)	Quantity of G proteins in membrane, treated versus control (Gsα [1]; C6-2B cells, 10 μM, 3 days, p>0.05)	G protein amount, Total (Gsα [1]; [5])	G protein amount, αsL (Gsα [1]; [5])	G protein amount, αsS (Gsα [1]; [5])	GsαL in the Triton X-114 fraction versus control group (Gsα [2]; 10 μM, 3 days, FIG. 1)	GsαL in Remainder, % of corresponding value in control group (Gsα [2]; 10 μM, 3 days)	GsαL in Triton X-100 extract, % of corresponding value in control group (Gsα [2]; 10 μM, 3 days)	GsαL in Triton X-114 extract, % of corresponding value in control group (Gsα [2]; 10 μM, 3 days)	GsαS in Remainder, % of corresponding value in control group (Gsα [2]; 10 μM, 3 days)	GsαS in Triton X-100 extract, % of corresponding value in control group (Gsα [2]; 10 μM, 3 days)	GsαS in Triton X-114 extract, % of corresponding value in control group (Gsα [2]; 10 μM, 3 days)	Gsα immunofluorescence in cell processes and process tips (Gsα [3])	Cells displaying intense Gsα staining at the process tips (and processes) (Gsα [3]; control 64%)	Decrease of the amount of Gsα in the caveolin-enriched Triton-insoluble fraction, normalized to equal caveolin (Gsα [4])	Shift of Gsα to the less hydrophobic Triton X-100 fraction (Gsα [2])
CN(C)CCC=C1c2ccccc2CCc2ccccc21 [Amitriptyline, amitriptyline]	no significant differences	13.10 ± 0.34 ng/10 ug of membrane protein	8.13 ± 0.17 ng/10 ug of membrane protein	4.98 ± 0.21 ng/10 ug of membrane protein	significantly lower	83.4 ± 14.5%	120.3 ± 3.7^b %	84.5 ± 0.8^b %	82.6 ± 5.1^a %	140.3 ± 9.3^b %	92.7 ± 3.8%				
CN(C)CCCN1c2ccccc2Sc2ccc(Cl)cc21 [Chlorpromazine, chlorpromazine]						83.8 ± 22.0%	107.4 ± 8.3%	105.7 ± 6.5%	100.4 ± 31.6%	113.4 ± 10.7%	102.2 ± 15.6%	uniform distribution of Gsα similar to control	68%	no more than 25%	did not exert these effects
CC(N)Cc1ccccc1 (stereo not shown) [amphetamine]															without effect
